Measurements reported in ChEMBL document CHEMBL5370636, “Asteriquinones from Aspergillus sp. GZWMJZ-258 and Their Derivatives” (J Nat Prod, 2023).

Key:
MV4-11 [1] = assay: Induction of apoptosis in human MV4-11 cells assessed as necrotic cells at 0.1 uM incubated for 24 hrs by Annexin V-FITC/PI staining based flow cytometry (reference value: 0.05 to 0.24 %); assay type: functional
MV4-11 [2] = assay: Induction of cell cycle arrest in human MV4-11 cells assessed as accumulation of cells at G0/G1 phase at 0.1 uM incubated for 24 hrs by PI staining based flow cytometry (reference value: 57.44 %); assay type: functional
[3] = Cytotoxicity against human L02 cells assessed as cell growth inhibition incubated for 72 hrs by Cell Titer-Glo assay
MV4-11 [4] = assay: Downregulation of FLT-3 protein expression in human MV4-11 cells incubated for 24 hrs by Western blot analysis; assay type: functional, cell-based; settings: dose 100-400 nM
MV4-11 [5] = assay: Induction of apoptosis in human MV4-11 cells assessed as viable cells at 0.1 uM incubated for 24 hrs by Annexin V-FITC/PI staining based flow cytometry (reference value: 98.58 to 99.04%); assay type: functional; settings: read-out: Activity
MV4-11 [6] = assay: Induction of apoptosis in human MV4-11 cells assessed as late apoptotic cells at 0.1 uM incubated for 24 hrs by Annexin V-FITC/PI staining based flow cytometry (reference value: 0.53 to 1.03 %); assay type: functional
[7] = Selectivity index, ratio of IC50 for human L02 cells to IC50 for human MV4-11 cells; settings: L02 cells and MV4-11 cells
MV4-11 [8] = assay: Cytotoxicity against human MV4-11 cells assessed as cell growth inhibition incubated for 72 hrs by Cell Titer-Glo assay; assay type: functional, cell-based; settings: MV4-11, 72 h
MV4-11 [9] = assay: Induction of cell cycle arrest in human MV4-11 cells assessed as accumulation of cells at G2/M phase at 0.1 uM incubated for 24 hrs by PI staining based flow cytometry (reference value: 18.56 %); assay type: functional
MV4-11 [10] = assay: Induction of apoptosis in human MV4-11 cells assessed as early apoptotic cells at 0.1 uM incubated for 24 hrs by Annexin V-FITC/PI staining based flow cytometry (reference value: 0.015 to 0.39 %); assay type: functional
MV4-11 [11] = assay: Induction of cell cycle arrest in human MV4-11 cells assessed as accumulation of cells at S phase at 0.1 uM incubated for 24 hrs by PI staining based flow cytometry (reference value: 27.58 %); assay type: functional

Structure (SMILES) | Activity (MV4-11 [1]) [%] | Activity (MV4-11 [2]) [%] | IC50 at 72 h [3] [µM] | Activity (MV4-11 [4]) | viability at 0.1 µM (MV4-11 [5]) [%] | Activity (MV4-11 [6]) [%] | selectivity ratio [7] | IC50 (MV4-11 [8]) [µM] | Activity (MV4-11 [9]) [%] | Activity (MV4-11 [10]) [%] | Activity (MV4-11 [11]) [%]
COc1c(OC)c(-c2c[nH]c3ccc(OCCO[C@@H]4O[C@H](CO)[C@@H](O)[C@H](O)[C@H]4O)cc23)c(OC)c(OC)c1-c1c[nH]c2ccccc12 | 0 | 52.91 | > 100 | Dose-Dependent Effect | 78 | 3.67 | > 380 | 0.26 | 17.42 | 15.78 | 30.68
COc1ccc2[nH]cc(-c3c(OC)c(OC)c(-c4c[nH]c5ccc(O)cc45)c(OC)c3OC)c2c1 |  |  | > 100 |  |  |  | > 75 | 1.3 |  |  | 
CCOc1ccc2[nH]cc(-c3c(OC)c(OC)c(-c4c[nH]c5ccccc45)c(OC)c3OC)c2c1 |  |  | > 100 |  |  |  | > 500 | 0.2 |  |  | 
COc1c(O)c(-c2c[nH]c3ccccc23)c(CC=C(C)C)c(OC)c1-c1c[nH]c2ccccc12 |  |  | 17 |  |  |  | 9 | 1.8 |  |  | 
COc1c(OC)c(-c2cn(C3CCCC3)c3ccccc23)c(OC)c(OC)c1-c1c[nH]c2ccccc12 |  |  | > 100 |  |  |  | > 120 | 0.84 |  |  | 
COc1c(OC)c(-c2c[nH]c3ccc(OCCN4CCOCC4)cc23)c(OC)c(OC)c1-c1c[nH]c2ccccc12 |  |  | > 100 |  |  |  | > 220 | 0.45 |  |  | 
COc1ccc2[nH]cc(-c3c(OC)c(OC)c(-c4c[nH]c5ccccc45)c(OC)c3OC)c2c1 |  |  | > 100 |  |  |  | > 15 | 6.5 |  |  | 
COc1c(OC)c(-c2c[nH]c3ccc(OCC(=O)c4ccc(Cl)c(Cl)c4)cc23)c(OC)c(OC)c1-c1c[nH]c2ccccc12 |  |  | > 100 |  |  |  | > 100 | 0.99 |  |  | 
COc1c(OC)c(-c2c[nH]c3ccc(OC4CCCC4)cc23)c(OC)c(OC)c1-c1c[nH]c2ccccc12 | 0 | 49.99 | > 100 | Dose-Dependent Effect | 74.7 | 4.36 | > 710 | 0.14 | 15.55 | 19.09 | 36.06
COc1c(OC)c(-c2c[nH]c3ccc(O)cc23)c(OC)c(OC)c1-c1c[nH]c2ccccc12 |  |  | > 100 |  |  |  | > 8 | 12 |  |  | 
COc1c(OC)c(-c2cn(CCN3CCOCC3)c3ccccc23)c(OC)c(OC)c1-c1c[nH]c2ccccc12 |  |  | > 100 |  |  |  | > 210 | 0.48 |  |  | 
COc1c(OC)c(-c2c[nH]c3ccccc23)c(OC)c(OC)c1-c1c[nH]c2ccccc12 |  |  | > 100 |  |  |  | > 17 | 5.9 |  |  | 
COc1c(OC)c(-c2c[nH]c3ccc(OCC(=O)c4ccccc4)cc23)c(OC)c(OC)c1-c1c[nH]c2ccccc12 |  |  | > 100 |  |  |  | > 74 | 1.3 |  |  | 
COc1c(O)c(-c2c[nH]c3ccccc23)c2c(c1-c1c[nH]c3ccccc13)OC(C)(C)C=C2 |  |  | 11 |  |  |  | 9 | 1.2 |  |  | 
